Data as given in patent US20060084599A1, “Compositions, methods and kits relating to notch signaling” (Maine Medical Center, priority 2003, published 2006).

Tests used:
[1] = test system: NIH 3T3 stable transfectants; test: FGF1-induced spheroid formation; assay type: cell-based, murine
Description: Clonal populations of NIH 3T3 stable transfectants were resuspended and grown in media containing 10% BCS, 10% BCS containing 1 μM PD166866, 10% BCS containing 10 ng/ml recombinant human FGF1 and 10 U/ml heparin or 10% BCS containing 10 ng/ml recombinant human FGF 1, 10 U/ml heparin and 1 μM PD 166866 as indicated in the figure legend. Approximately 2×10^5 cells were plated per well (6-well dish) and three days after plating, phase-contrast micrographs of the cells were taken.

[2] = test system: NIH 3T3 cell transfectants; test: Colony formation in soft agar (anchorage-independent growth); assay type: cell-based, murine
Description: Clonal populations of NIH 3T3 cells stably transfected with vector control, soluble Jagged1 (sJ1), constitutively active Notch1 (caN1), constitutively active Notch 2 (caN2), dominant negative Notch 1 (dnN1), dominant negative Notch 2 (dnN2), an oncogenic mutant of FGF1 engineered with the FGF4 signal peptide sequence (hst-β (FGF4):FGF1), or constitutively active oncogenic Ras construct (caRas), were plated on 6 cm tissue culture dishes with 0.5% agar in an overlay containing DMEM (Gibco BRL) media, 10% bovine calf serum (BCS; Hyclone), and 0.33% agar at 1.5×10^3 cells/dish. As indicated, some dishes were also treated with 1 μM of the FGFR1-specific inhibitor, PD166866 (Panek et al., 1998, J. Pharmacol. Exp. Ther. 286: 569-577) and/or 10 ng/ml recombinant human FGF1 and 10 U/ml heparin (Sigma). Cells were fed with 0.5 ml of media with or without FGF1 and/or the FGFR1-specific inhibitor every 3 days as indicated. Twenty days after plating, colonies were stained with p-iodonitrotetrazolium violet (Sigma) for visualization. Quantitation of colony formation was achieved by counting all p-iodonitrotetrazolium violet-stained colonies consisting of more than 4 cells under a Zeiss Stemi SVII Apo dissecting microscope.
Anchorage-Dependent and -Independent Cell Growth Assays. Approximately 3×10^4 cells were plated on fibronectin (10 μg/cm^2)-coated in 12-well cell culture dishes (Falcon) in DMEM containing 10% BCS (v/v) (Hyclone). Three wells of the individual NIH 3T3 cell transfectants were harvested every third day and cell number was quantitated using a hemocytometer. Anchorage-independent cell growth was evaluated by plating in duplicate approximately 1.7×10^3 cells in DMEM containing 0.5% (w/v) agar (Sigma) 10% (v/v) BCS into 5 cm plastic dishes (Falcon) as previously described (Small et al., 2003, J. Biol. Chem. 278:16405-16413).

Notch receptor = test: cell-based or functional assay
[3] = test system: CSL1-dependent transcription; test: Dual luciferase reporter assay of CSL1-dependent transcription (Example 2); assay type: cell-based, murine
Description: Insert-less vector control and sJ1 NIH 3T3 cell transfectants (approximately 3×10^4) were plated on fibronectin-coated (10 μg/cm^2) cell culture dishes and the cells were transiently transfected at approximately 50% confluency with 500 ng of a luciferase construct containing four tandem copies of the CBF1 response element (Small et al., 2001, J. Biol. Chem. 276:32022-32030).
Cotransfection with 100 ng of the TK Renilla (Promega) construct was used as an internal control for transfection efficiency using Fugene 6 (Roche), according to the manufacturer's instructions. Cells were treated with or without 10, […] hours after transfection, harvested 48 hours after the transfection and luciferase/renilla activity measured using the Dual Luciferase Reporter Assay System (Promega). Each experiment was performed in triplicate.

[4] = test system: caN1/CSL-activated transcription; test: Transient transfection assay of CSL-regulated transcription (Example 1); assay type: cell-based, murine; conditions: exogenous FGF1 1-10 ng/ml; caN1 transfectants
Description: NIH 3T3 cells were plated onto fibronectin-coated (10 μg/cm2) 12-well tissue culture dishes and transiently transfected at approximately 80% confluency with 500 ng of a Luciferase construct activated by 4 tandem copies of the CSL (CBF1) response element (Hsieh et al. 1996, Mol. Cell. Biol. 16: 952-959), 100 ng of the TK Renilla (Promega) construct as an internal control for transfection efficiency, and 500 ng of either vector control, sJ1 or caN1 constructs using Fugene 6 (Roche) per manufacturer's instructions. For analysis of caN1 activity in the background of NIH 3T3 stable lines, vector control, caN1, sJ1 and hst-β(FGF4):FGF1 stable transfectants were plated onto fibronectin-coated (10 μg/cm2) 12-well tissue culture dishes and transiently transfected with 500 ng of the CSL-Luciferase construct, 100 ng of the TK Renilla (Promega) construct as an internal control for transfection efficiency, and 200 ng of caN1. […] The cells were harvested 48 hours after the media change and Luciferase/Renilla activity was measured using Promega's Dual-Luciferase Reporter Assay System. The efficiency of transcription was measured and normalized in relationship to the activity of pRL-TK Renilla and the activity is reported as the ratio of Luciferase/Renilla activity. […]

Jagged1 = Jagged1 expression by immunoblot; assay type: cell-based, murine; conditions: 10 ng/ml FGF1 and 10 U/ml heparin in growth media
Description: Vector control, SJ1, CaN1, J1, Hstβ(FGF4):FGF1 and sJ1:caN1 stable NIH 3T3 cell transfectants were plated on tissue culture dishes in either normal growth media (DMEM (Gibco BRL) media, 10% bovine calf serum (BCS; Hyclone)) or normal growth media containing 10 ng/ml recombinant FGF1 and 10 U/mi heparin. Cells were harvested at confluency (based on status of vector control cells grown in normal growth media).
Because hst-β(FGF4):FGF1 stable transfectants and the sJ1 transfectants grown in FGF 1-containing media form spheroids, all cells were harvested by scraping in the presence of the growth media dn then the cells/growth media was collected into sterile 15 ml conical tubes. Cells were pelleted by centrifugation at 800×g for 5′ at 4° C. After centrifugation, the supernatant was removed and the cell pellets were washed 3× with 1×PBS. Cells were lysed in 500 μl in 20 mM tris, pH 7.5 containing 300 mM sucrose, 60 mM KCl, 15 mM NaCl, 0.5 mM EDTA, 0.5% (v/v) Triton X-100 1 mM Phenymethyl sulfonyl flouride, 0.1% SDS, 2 μg/ml aprotinin, […], 10 μg/ml leupeptin, and 1 mM sodium orthovanadate for 15 minutes on ice. Cell lysates were pelleted and the supernatant containing soluble proteins removed.
Samples were normalized to protein concentration using the BCA Protein Assay Kit (Pierce). […]

[5] = molecular target: full-length human Jagged1 on NIH 3T3 cell transfectants (human) (UniProt P78504); test: cell-based or functional assay
Chain of full-length human Jagged1 on NIH 3T3 cell transfectants (human) (P78504 34-1218 A1171G limits assumed): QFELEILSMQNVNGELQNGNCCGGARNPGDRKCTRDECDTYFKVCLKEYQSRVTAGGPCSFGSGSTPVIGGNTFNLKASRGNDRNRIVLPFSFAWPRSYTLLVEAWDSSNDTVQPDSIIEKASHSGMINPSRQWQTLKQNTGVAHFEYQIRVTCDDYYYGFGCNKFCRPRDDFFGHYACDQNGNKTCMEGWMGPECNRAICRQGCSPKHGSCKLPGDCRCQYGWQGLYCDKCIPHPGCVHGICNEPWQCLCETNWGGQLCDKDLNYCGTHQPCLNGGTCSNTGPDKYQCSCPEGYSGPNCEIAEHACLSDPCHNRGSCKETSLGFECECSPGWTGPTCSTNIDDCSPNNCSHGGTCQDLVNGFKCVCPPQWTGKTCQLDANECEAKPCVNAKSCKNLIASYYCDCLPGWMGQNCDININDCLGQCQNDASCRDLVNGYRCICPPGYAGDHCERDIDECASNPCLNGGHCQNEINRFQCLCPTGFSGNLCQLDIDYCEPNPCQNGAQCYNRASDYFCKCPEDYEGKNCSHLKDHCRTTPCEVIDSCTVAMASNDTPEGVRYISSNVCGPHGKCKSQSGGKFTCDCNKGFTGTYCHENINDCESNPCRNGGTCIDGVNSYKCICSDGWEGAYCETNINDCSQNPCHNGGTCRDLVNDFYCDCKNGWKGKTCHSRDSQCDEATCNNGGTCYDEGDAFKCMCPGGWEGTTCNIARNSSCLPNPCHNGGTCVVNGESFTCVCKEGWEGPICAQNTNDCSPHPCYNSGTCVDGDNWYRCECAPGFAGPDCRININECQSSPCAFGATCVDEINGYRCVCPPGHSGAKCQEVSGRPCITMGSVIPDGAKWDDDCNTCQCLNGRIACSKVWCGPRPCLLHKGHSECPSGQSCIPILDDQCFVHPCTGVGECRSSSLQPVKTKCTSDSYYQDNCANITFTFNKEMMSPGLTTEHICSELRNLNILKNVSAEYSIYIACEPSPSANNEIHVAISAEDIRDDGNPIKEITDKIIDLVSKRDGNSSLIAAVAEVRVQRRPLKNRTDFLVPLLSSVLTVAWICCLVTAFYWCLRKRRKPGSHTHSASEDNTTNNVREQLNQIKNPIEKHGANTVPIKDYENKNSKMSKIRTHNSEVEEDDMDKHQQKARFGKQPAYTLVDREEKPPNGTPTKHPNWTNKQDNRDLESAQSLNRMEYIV

[6] = test system: full-length human Jagged1, in vitro translation product
[7] = test system: in vitro translation product of the Delta1 transcript
FGFR1 (mouse) = FGFR1 (mouse) (UniProt P16092); test: cell-based or functional assay
Chain of FGFR1 (mouse) (P16092 22-822): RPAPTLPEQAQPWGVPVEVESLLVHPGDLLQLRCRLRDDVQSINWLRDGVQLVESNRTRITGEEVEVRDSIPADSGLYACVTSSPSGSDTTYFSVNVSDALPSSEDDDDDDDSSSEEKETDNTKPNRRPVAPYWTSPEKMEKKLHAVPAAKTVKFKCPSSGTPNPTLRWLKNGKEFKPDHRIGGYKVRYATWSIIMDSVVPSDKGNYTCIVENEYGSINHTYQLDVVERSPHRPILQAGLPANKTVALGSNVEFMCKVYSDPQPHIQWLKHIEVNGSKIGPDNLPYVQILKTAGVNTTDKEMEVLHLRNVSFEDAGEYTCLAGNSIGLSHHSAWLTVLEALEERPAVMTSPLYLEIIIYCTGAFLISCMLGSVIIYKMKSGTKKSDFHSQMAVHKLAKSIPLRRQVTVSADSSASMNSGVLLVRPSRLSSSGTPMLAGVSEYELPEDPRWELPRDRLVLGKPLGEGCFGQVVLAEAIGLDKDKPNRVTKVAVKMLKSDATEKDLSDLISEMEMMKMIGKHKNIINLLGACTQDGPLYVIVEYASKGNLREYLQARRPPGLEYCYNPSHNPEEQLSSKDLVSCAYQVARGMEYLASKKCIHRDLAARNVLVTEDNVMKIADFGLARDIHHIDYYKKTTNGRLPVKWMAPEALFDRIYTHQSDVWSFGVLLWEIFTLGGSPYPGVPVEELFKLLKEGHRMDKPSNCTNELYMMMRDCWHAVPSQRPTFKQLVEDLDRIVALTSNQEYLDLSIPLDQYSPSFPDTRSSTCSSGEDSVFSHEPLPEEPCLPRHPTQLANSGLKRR

Molecule: COc1cc(OC)cc(-c2cc3cnc(N)nc3nc2NC(=O)NC(C)(C)C)c1 [PD166866]
- effect on FGF1-induced spheroid formation ([1]; 1 μM PD166866, sJ1, dnN1 and hst-β(FGF4):FGF1 transfectants): completely abolished FGF1-induced spheroid formation
- effect on anchorage-independent growth of sDl1 NIH 3T3 cell transfectants [2]: completely inhibited
- effect on colony formation in caRas cells ([2]; 1 μM): had no effect on colony formation in the caRas cells
- effect on colony growth of sJ1 and dnN1 in the absence of FGF1 ([2]; 1 μM): inhibited small colony growth
- effect on FGF1-mediated colony formation ([2]; 1 μM, sJ1, dnN1 and hst-β(FGF4):FGF1 transfectants): substantially reduced FGF1-mediated colony formation

Molecule: soluble Jagged1 (sJ1) (from UniProt P78504 34-1067) (ligand)
- CSL1-dependent transcription (dual luciferase reporter) (% of the control level) (Notch receptor): 25

Molecule: FGF1: recombinant human FGF1 (acidic FGF)
- CSL1-dependent transcription, level relative to control ([3]; thrombin on full-length Jagged1 NIH 3T3 transfectants, sJ1 expression, 10 ng/ml exogenous FGF1): approximately 25 % of the control level
- spheroid formation in Notch-repressed (sJ1, dnN1) NIH 3T3 cells ([1]; 10 ng/ml recombinant FGF1 and 10 U/ml heparin): formed multicellular, spheroid-like structures
- effect on colonies formed by sJ1 and dnN1 transfectants ([2]; 10 ng/ml FGF1 in growth media): greatly exaggerated the size of the colonies
- effect on caN1/CSL transcription [4]: repressed caN1/CSL transcription in a dose-dependent fashion
- effect on Jagged1 expression (Jagged1): increased Jagged1 expression in all stable lines examined

Molecule: α-thrombin (enzyme)
- CSL1-dependent transcription (dual luciferase reporter) in full-length Jagged1 NIH 3T3 cell transfectants (% of the control level) [5]: 75

Molecule: α-thrombin
- proteolytic cleavage of in vitro translated (35S)-labelled Jagged1, SDS-PAGE and autoradiography [6]: cleavage of the full-length Jagged1 protein into 39 kDa and 95 kDa fragments
- proteolytic cleavage of the in vitro translation product [7]: thrombin was unable to proteolytically modify the in vitro translation product of the Delta1 transcript

Molecule: heparin [reference compound]
- effect of heparin on thrombin-dependent repression of CSL1-dependent transcription ([3]; heparin 5 units/ml with thrombin 10 μg/ml, full-length Jagged1 NIH 3T3 transfectants): able to potentiate the thrombin-dependent repression of CSL1-dependent transcription
- effect of heparin on CSL1-dependent transcription ([3]; heparin by itself or with 10 μM TRAP): ineffective in altering CSL1-dependent transcription

Molecule: recombinant FGF1 (from UniProt P05230 16-155) (ligand)
- DNA synthesis ((3H)-thymidine-labelled nuclei) in Swiss 3T3 cells expressing dnFGFR1 (FGFR1 (mouse)): 70 % reduction
